Test results published in US20040009569A1, “Kinase crystal structures and materials and methods for kinase activation” (priority 2001, published 2004).
Peptide text beside a SMILES is read from it.

Columns and labels:
[1] = molecular target: T1, pΔPH-PKB-ΔC (PKBβ residues 146 to 460, phosphorylated in vitro on Thr-309) (Homo sapiens, UniProt P31751); assay: Protein kinase B assay with Crosstide as substrate, peptide stimulation of pΔPH-PKB-ΔC; format: biochemical; details: Crosstide substrate
T1 construct: pΔPH-PKB-ΔC (residues 146 to 460, phosphorylated in vitro on Thr-309); 6xHis (N, cleaved yes); made in house; host or cells: Sf9 insect cells / baculovirus (pFastBacHTa)
T1 sequence (P31751 146-460, stated change not applied): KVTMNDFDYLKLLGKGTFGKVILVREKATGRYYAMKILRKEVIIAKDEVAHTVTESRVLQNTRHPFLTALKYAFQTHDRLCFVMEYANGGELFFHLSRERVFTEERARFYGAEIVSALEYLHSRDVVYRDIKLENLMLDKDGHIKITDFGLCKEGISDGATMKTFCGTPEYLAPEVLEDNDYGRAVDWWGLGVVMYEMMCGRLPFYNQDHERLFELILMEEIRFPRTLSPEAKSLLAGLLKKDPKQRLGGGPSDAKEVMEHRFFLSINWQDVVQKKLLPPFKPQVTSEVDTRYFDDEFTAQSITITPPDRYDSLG
Method: To test the model that Ser 474 phosphorylation promotes an interaction between the hydrophobic motif and the induced hydrophobic groove of the N-terminal lobe, thereby causing an allosteric activation of the kinase, the ability of peptides modelled on the hydrophobic motif of PKB to activate the enzyme via an intermolecular association with the N-terminal lobe was assessed.
(§1) PKB was assayed essentially as described by Andjelkovic et al. (1999) with 30 μM Crosstide (GRPRTSSAEG) as substrate except the protein kinase A inhibitor peptide was not added to the reactions. For peptide stimulation experiments the various peptides were dissolved in water and added to the kinase assay mix prior to adding the PKB protein. Peptides were synthesized by Franz Fischer at the FMI or purchased from Neosystem, Strasburg, France.
All experiments were performed in either duplicate or triplicate.

pΔPH-PKB-ΔC = molecular target: T2, pΔPH-PKB-ΔC (Homo sapiens, UniProt P31751); assay: Isothermal titration calorimetry, peptide binding to pΔPH-PKB-ΔC; details: ITC; read-out: equilibrium dissociation constant
T2 construct: pΔPH-PKB-ΔC (residues 146 to 460, phosphorylated in vitro on Thr-309); 6xHis (N, cleaved yes); made in house; host or cells: Sf9 insect cells / baculovirus (pFastBacHTa)
T2 sequence (P31751 146-460, stated change not applied): as above
Method: (§2) (C) Isothermal titration calorimetry measurements of the binding of PIFtide to pΔPH-PKB-ΔC (left) and ΔPH-PKB-ΔC (right). Upper panel, raw data of the titration of PIFtide into pΔPH-PKB-ΔC. Lower panel, integrated heats of injections, corrected for the heat of dilution, with the solid line corresponding to the best fit of the data using the MicroCal software.
(§3) Using isothermal titration calorimetry, the affinity between PIFtide and both pΔPH-PKB-ΔC and ΔPH-PKB-ΔC was determined (FIG. 5C). […] The observed large decrease in entropy is […] typical of protein-peptide interactions, for example SH2-domain-phosphotyrosine peptide complexes (Ladbury et al., 1996), and is consistent with an ordering of both the protein, presumably the αB- and αC-helices of the N-lobe, and peptide on complex formation.

ΔPH-PKB-ΔC = molecular target: T3, ΔPH-PKB-ΔC (Homo sapiens, UniProt P31751); assay: Isothermal titration calorimetry, peptide binding to ΔPH-PKB-ΔC
T3 construct: ΔPH-PKB-ΔC(residues 146 to 460, not phosphorylated on Thr-309); 6xHis (N, cleaved yes); made in house; host or cells: Sf9 insect cells / baculovirus (pFastBacHTa)
T3 sequence (P31751 146-460, stated change not applied): as above
Method: as §2, §3

[2] = molecular target: T4, His tagged pΔPH-PKB-ΔC L225A mutant (Homo sapiens, UniProt P31751, L225A); assay: PIFtide responsiveness of hydrophobic groove mutant Leu 225; format: biochemical; details: 130 μM PIFtide
T4 construct: pΔPH-PKB-ΔC (residues 146 to 460, phosphorylated in vitro on Thr-309); made in house; host or cells: HEK cells (transient expression), purified on Ni-NTA agarose
T4 sequence (P31751 146-460 L225A): as the sequence (P31751 146-460, stated change not applied) above, with L80A counted along it
Method: (§4) Mutations of conserved hydrophobic motif residues of PIFtide and PKB HM-peptide reduce or eliminate their potential to activate ΔPH-PKB-ΔC phosphorylated on Thr 309. Mutations of hydrophobic and electrostatic residues of the ΔPH-PKB-ΔC N-lobe hydrophobic groove reduces the stimulation of PKB activity by 130 μM PIFtide.
(§5) To test the notion that a hydrophobic groove is induced in PKB to engage the hydrophobic motif, and activate the kinase, a series of His tagged pΔPH-PKB-ΔC hydrophobic groove mutants were prepared and their responsiveness to PIFtide assessed. PKB mutants were transiently expressed in HEK cells, phosphorylated in vitro with PDK1, and purified using Ni-NTA agarose. […] Wild type PKB prepared using this procedure was stimulated ˜5-fold by 130 μM PIFtide (FIG. 6B).
as §1

[3] = molecular target: T5, His tagged pΔPH-PKB-ΔC R202D mutant (Homo sapiens, UniProt P31751, R202D); assay: PIFtide responsiveness of charge reversal mutant R202D; format: biochemical
T5 construct: pΔPH-PKB-ΔC (residues 146 to 460, phosphorylated in vitro on Thr-309); made in house; host or cells: HEK cells (transient expression), purified on Ni-NTA agarose
T5 sequence (P31751 146-460 R202D): as the sequence (P31751 146-460, stated change not applied) above, with R57D counted along it
Method: as §4, §5
Electrostatic interactions are important in defining high affinity PIFtide and PKB HM peptide associations with PKB (FIG. 5B), and form the basis for the increased affinity of the HM for the N-lobe and subsequent activation of PKB by Ser 474 phosphorylation. […] The equivalent residue of PKA, Arg 93, which is also conserved in PKC and PRK2, forms a water-mediated salt bridge to the carboxylate group of Glu 349 (FIG. 2).
PKB was assayed essentially as described by Andjelkovic et al. (1999) with 30 μM Crosstide (GRPRTSSAEG) as substrate except the protein kinase A inhibitor peptide was not added to the reactions. […]

PDK1 [4] = molecular target: T6, PDK1 (Homo sapiens, UniProt O15530); details: cited from earlier work
T6 sequence (O15530 1-556): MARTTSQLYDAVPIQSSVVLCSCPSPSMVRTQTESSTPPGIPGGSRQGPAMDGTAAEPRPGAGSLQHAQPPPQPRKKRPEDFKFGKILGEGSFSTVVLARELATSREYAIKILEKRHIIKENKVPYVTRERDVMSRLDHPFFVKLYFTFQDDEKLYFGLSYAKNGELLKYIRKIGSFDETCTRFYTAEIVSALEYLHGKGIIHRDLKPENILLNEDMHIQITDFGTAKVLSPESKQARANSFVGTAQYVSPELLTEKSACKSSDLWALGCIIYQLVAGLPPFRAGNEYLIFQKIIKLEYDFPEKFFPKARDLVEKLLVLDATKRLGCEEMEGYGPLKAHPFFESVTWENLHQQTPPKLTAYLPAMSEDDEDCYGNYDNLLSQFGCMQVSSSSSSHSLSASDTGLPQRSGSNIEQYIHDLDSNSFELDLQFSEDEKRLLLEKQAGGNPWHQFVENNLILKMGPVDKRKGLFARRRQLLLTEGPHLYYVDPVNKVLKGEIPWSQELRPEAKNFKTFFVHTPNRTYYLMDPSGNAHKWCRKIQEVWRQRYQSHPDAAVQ

PDK1 [5] = molecular target: T6, PDK1; details: cited from earlier work; remark: listed apart in the source

SMILES: CC[C@H](C)[C@H](NC(=O)[C@H](Cc1ccc(O)cc1)NC(=O)[C@H](CC(=O)O)NC(=O)[C@H](Cc1ccccc1)NC(=O)[C@H](CC(=O)O)NC(=O)[C@H](CCCNC(=N)N)NC(=O)[C@H](Cc1ccccc1)NC(=O)[C@H](CCSC)NC(=O)[C@H](CCC(=O)O)NC(=O)[C@H](CCC(N)=O)NC(=O)[C@H](CCC(=O)O)NC(=O)[C@H](CCC(=O)O)NC(=O)[C@H](CCC(=O)O)NC(=O)[C@H](CO)NC(=O)[C@H](CC(C)C)NC(=O)[C@@H](NC(=O)[C@H](CCCNC(=N)N)NC(=O)[C@@H]1CCCN1C(=O)[C@H](CCC(=O)O)NC(=O)[C@@H](N)CCCNC(=N)N)[C@@H](C)CC)C(=O)N[C@@H](C)C(=O)N[C@@H](CC(=O)O)C(=O)N[C@@H](Cc1c[nH]c2ccccc12)C(=O)O [PIFtide] (H-REPRILSEEEQEMFRDFDYIADW-OH; N-terminus and C-terminus assumed)
- concentration of maximum and saturable activation [1]: 20 µM
- specific activity of pΔPH-PKB-ΔC maximally activated by PIFtide [1]: 350 nmol/min/mg
- EC50 ([1]; value of PIFtide(D->A) called estimated, read-out: EC50 for activation of pΔPH-PKB-ΔC): 3 µM
- Kd (pΔPH-PKB-ΔC): 6 µM
- binding to ΔPH-PKB-ΔC (in words) (ΔPH-PKB-ΔC): can bind
- enthalpy change ΔH (ΔPH-PKB-ΔC; ITC): -16.0 kcal/mol
- entropy term TΔS (ΔPH-PKB-ΔC; ITC): -9.2 kcal/mol
- Kd (ΔPH-PKB-ΔC; ITC, read-out: dissociation constant): 5.5 µM
- responsiveness to PIFtide (in words) [2]: almost a complete loss of responsiveness
- ability of PIFtide to activate R202D PKB (in words) ([3]; 130 μM PIFtide): almost eliminates
- responsiveness of R202D PKB (in words) ([3]; higher concentrations of the peptide): more responsive
- stimulation of PDK1 activity (PDK1 [4]): four-fold
- effect on thermal stability of PDK1 (in words) (PDK1 [5]): greatly increases
